Several values for one entry are separate records, joined by “and”; a condition that tells them apart may be missing. Equal entries are not always repeated. Numbers after ± are expanded uncertainties.
Assay: mn = molality of the nth substance listed, in mol/kg
Details: 101 kPa, Liquid, Pycnometric method

COc1cccc([C@@]2(O)CCCC[C@@H]2CN(C)C)c1.Cl [tramadol hydrochloride] + O
Details | mass density [kg/m3]
288.15 K, m1 = 0.0138 | 999.75 ± 0.36
288.15 K, m1 = 0.026 | 1000.36 ± 0.36
288.15 K, m1 = 0.0298 | 1000.53 ± 0.36
288.15 K, m1 = 0.04 | 1001.04 ± 0.36
288.15 K, m1 = 0.0536 | 1001.72 ± 0.37
288.15 K, m1 = 0.0604 | 1002.03 ± 0.36
288.15 K, m1 = 0.0702 | 1002.51 ± 0.36
288.15 K, m1 = 0.0805 | 1002.96 ± 0.36
288.15 K, m1 = 0.0903 | 1003.44 ± 0.37
288.15 K, m1 = 0.099 | 1003.81 ± 0.37
288.15 K, m1 = 0.1207 | 1004.82 ± 0.37
288.15 K, m1 = 0.1511 | 1006.21 ± 0.37
298.15 K, m1 = 0.0114 | 997.56 ± 0.37
298.15 K, m1 = 0.0211 | 998.02 ± 0.38
298.15 K, m1 = 0.0296 | 998.42 ± 0.38
298.15 K, m1 = 0.0403 | 998.93 ± 0.38
298.15 K, m1 = 0.0501 | 999.29 ± 0.38
298.15 K, m1 = 0.0607 | 999.82 ± 0.38
298.15 K, m1 = 0.0804 | 1000.74 ± 0.38
298.15 K, m1 = 0.0923 | 1001.23 ± 0.38
298.15 K, m1 = 0.1016 | 1001.66 ± 0.38
298.15 K, m1 = 0.1183 | 1002.31 ± 0.38
298.15 K, m1 = 0.149 | 1003.78 ± 0.38
308.15 K, m1 = 0.0117 | 994.5 ± 0.42
308.15 K, m1 = 0.0195 | 994.81 ± 0.42
308.15 K, m1 = 0.0299 | 995.32 ± 0.42
308.15 K, m1 = 0.0399 | 995.75 ± 0.42
308.15 K, m1 = 0.0493 | 996.19 ± 0.42
308.15 K, m1 = 0.06 | 996.6 ± 0.42
308.15 K, m1 = 0.0717 | 997.13 ± 0.42
308.15 K, m1 = 0.082 | 997.64 ± 0.42
308.15 K, m1 = 0.0912 | 997.99 ± 0.42
308.15 K, m1 = 0.1 | 998.39 ± 0.42
308.15 K, m1 = 0.1181 | 999.15 ± 0.42
308.15 K, m1 = 0.1501 | 1000.52 ± 0.43

CN(C)C(=N)NC(=N)N.Cl [N,N-dimethylimidodicarbonimidic diamide hydrochloride] + O
Details | mass density
288.15 K, m1 = 0.0309 | 1000.34 ± 0.36 kg/m3
288.15 K, m1 = 0.0416 | 1000.77 ± 0.36 kg/m3
288.15 K, m1 = 0.0506 | 1001.17 ± 0.36 kg/m3
288.15 K, m1 = 0.0608 | 1001.55 ± 0.36 kg/m3
288.15 K, m1 = 0.0712 | 1001.9 ± 0.36 kg/m3
288.15 K, m1 = 0.0815 | 1002.31 ± 0.36 kg/m3
288.15 K, m1 = 0.0922 | 1002.71 ± 0.36 kg/m3
288.15 K, m1 = 0.1028 | 1003.21 ± 0.36 kg/m3
288.15 K, m1 = 0.1138 | 1003.39 ± 0.36 kg/m3
288.15 K, m1 = 0.1207 | 1003.71 ± 0.36 kg/m3
288.15 K, m1 = 0.1527 | 1004.89 ± 0.36 kg/m3
298.15 K, m1 = 0.029 | 998.2 ± 0.37 kg/m3
298.15 K, m1 = 0.0415 | 998.7 ± 0.38 kg/m3
298.15 K, m1 = 0.0508 | 999.07 ± 0.38 kg/m3
298.15 K, m1 = 0.0592 | 999.42 ± 0.38 kg/m3
298.15 K, m1 = 0.0725 | 999.91 ± 0.38 kg/m3
298.15 K, m1 = 0.0769 | 1000.1 ± 0.38 kg/m3
298.15 K, m1 = 0.0904 | 1000.51 ± 0.37 kg/m3
298.15 K, m1 = 0.1072 | 1001.13 ± 0.38 kg/m3
298.15 K, m1 = 0.1191 | 1001.63 ± 0.37 kg/m3 and 1001.57 ± 0.37 kg/m3
298.15 K, m1 = 0.1303 | 1002 ± 0.38 kg/m3
308.15 K, m1 = 0.0306 | 995.14 ± 0.42 kg/m3
308.15 K, m1 = 0.0404 | 995.53 ± 0.42 kg/m3
308.15 K, m1 = 0.0514 | 995.89 ± 0.42 kg/m3
308.15 K, m1 = 0.058 | 996.2 ± 0.42 kg/m3
308.15 K, m1 = 0.0704 | 996.6 ± 0.42 kg/m3
308.15 K, m1 = 0.0811 | 996.95 ± 0.42 kg/m3
308.15 K, m1 = 0.0915 | 997.53 ± 0.42 kg/m3
308.15 K, m1 = 0.1014 | 997.74 ± 0.42 kg/m3
308.15 K, m1 = 0.1218 | 998.62 ± 0.42 kg/m3
308.15 K, m1 = 0.152 | 999.56 ± 0.42 kg/m3

CNC(=C[N+](=O)[O-])NCCSCc1ccc(CN(C)C)o1.Cl [ranitidine hydrochloride] + O
Details | mass density [kg/m3]
288.15 K, m1 = 0.0202 | 1000.92 ± 0.37
288.15 K, m1 = 0.0306 | 1001.78 ± 0.37
288.15 K, m1 = 0.0407 | 1002.69 ± 0.37
288.15 K, m1 = 0.0488 | 1003.32 ± 0.37
288.15 K, m1 = 0.0602 | 1004.33 ± 0.37
288.15 K, m1 = 0.0702 | 1005.27 ± 0.37
288.15 K, m1 = 0.0813 | 1006.23 ± 0.38
288.15 K, m1 = 0.092 | 1007.13 ± 0.38
288.15 K, m1 = 0.1019 | 1007.93 ± 0.38
288.15 K, m1 = 0.1149 | 1009.12 ± 0.38
288.15 K, m1 = 0.1521 | 1012.15 ± 0.38
298.15 K, m1 = 0.0103 | 997.99 ± 0.38
298.15 K, m1 = 0.0198 | 998.81 ± 0.38
298.15 K, m1 = 0.0295 | 999.58 ± 0.38
298.15 K, m1 = 0.0501 | 1001.38 ± 0.38
298.15 K, m1 = 0.0603 | 1002.17 ± 0.39
298.15 K, m1 = 0.0697 | 1002.94 ± 0.39
298.15 K, m1 = 0.0789 | 1003.7 ± 0.39
298.15 K, m1 = 0.0907 | 1004.69 ± 0.39
298.15 K, m1 = 0.0994 | 1005.38 ± 0.39
298.15 K, m1 = 0.1171 | 1006.83 ± 0.4
298.15 K, m1 = 0.1475 | 1009.32 ± 0.4
308.15 K, m1 = 0.0109 | 994.91 ± 0.42
308.15 K, m1 = 0.0191 | 995.59 ± 0.43
308.15 K, m1 = 0.0313 | 996.62 ± 0.43
308.15 K, m1 = 0.0428 | 997.58 ± 0.43
308.15 K, m1 = 0.0507 | 998.2 ± 0.43
308.15 K, m1 = 0.059 | 998.85 ± 0.43
308.15 K, m1 = 0.0695 | 999.78 ± 0.43
308.15 K, m1 = 0.0876 | 1001.15 ± 0.43
308.15 K, m1 = 0.0986 | 1002.15 ± 0.43
308.15 K, m1 = 0.119 | 1003.69 ± 0.43
308.15 K, m1 = 0.1483 | 1006.01 ± 0.44

Source: the NIST ThermoML archive (doi:10.1016/j.jct.2011.12.022)
